The conditions of series [1]: cited from earlier work.
Series [2] can be described thus: Dissolution of IBU compositions in SGFsp pH 1.2 (USP apparatus II, fiber-optic UV). The settings on record: at 2 hours. The class given is physicochemical.
Method: All dissolution tests were conducted in a Vankel VK-7000 (Varian, Inc.) USP apparatus II (paddle) dissolution tester. The dissolution medium was maintained at 37° C. with a recirculating heater and a paddle speed of 75 RPM was constant throughout the test. The theoretical equivalent of 200 mg of IBU (1.0 g of KSD product) was added to each vessel containing 1 L of the dissolution medium (n=3). […] The dissolution medium recipe (SGFsp) consisted of 2.0 g NaCl and 80 ml of 0.1 N HCl in a total of 1 L of purified water (pH=1.2). The dissolution medium was degassed prior to testing by the heat/sonication method.
The concentration of IBU in solution during the 120 minute dissolution test (shown in Table 10) was measured once per minute using a Pion Spectra in-situ fiber-optic UV-diss system (Pion, Inc., Billerica, Mass.) with a 1 mm path length probe tip. Concentrations were determined by integrating the area under the UV absorption curve in a wavelength range of 216 to 222 nm with a baseline correction at 450 nm. Linearity was established over a range of 1.4 to 200 μg/ml with a correlation coefficient of 0.9992. A diluents consisting of 7:3 (V/V) SGFsp:Acetonitrile (HPLC grade, no UV absorption beyond 190 nm) was used to generate the IBU standard curve.

Results on 3 compounds are retold here after patent US20180280302A1, “SOLID DISPERSIONS OF COMPOUNDS USING POLYVINYL ALCOHOL AS A CARRIER POLYMER” (MERCK PATENT GMBH, priority 2015, published 2018).

With `Cc1ccnc2c1NC(=O)c1cccnc1N2C1CC1` [Nevirapine], the pKa (as a rule, the pH at which an ionisable group is half protonated) in series [1] was 2.8.

`CC(C)Cc1ccc(C(C)C(=O)O)cc1` (stereo not drawn) [Pure Ibuprofen, Ibuprofen]: in series [2], the final concentration was more than 0.02 mg/mL.

On to Acetriptan, for which the pKa in series [1] is on record as 4.9.
